Tests used:
[1] = Crystallization study, preliminary solvent screening (solubility comments); type: physicochemical
From the text: An aliquot of purified compound of formula (Ia) obtained from Example 4 (0.83 L containing about 10 g of compound) was used in the crystallization study.

[2] = Storage stability of crystalline forms of compound of formula (Ia); type: physicochemical
Protocol: Form A of the crystalline anhydrous Compound of formula (Ia) was stable for at least 9 months in industrial packaging (Type III amber glass vial (10 mL) closed by a black plastic screw cap with polyethylene stoppers) at 25° C. and 60% relative humidity and as a free crystalline powder at 80° C. and 60% humidity for 24 hours.
The anhydrous crystalline Form B was characterized by an X-ray powder diffraction (X-RPD) pattern obtained using the copper wavelengths λ1 and λ2 of 1.54056 Å and 1.54439 Å showing a crystalline structure and comprising distinctive reflections, expressed as 20 degrees values, at 4.9, 8.5, 9.8, 11.4, 14.6, 16.5, 17.5, 19.5, 21.4, 27.7, 28.7±0.2 degrees 2θ.

CC1=CC2[C@]3(O)C(C4C(C)(C)[C@]4(O)[C@H](O)[C@H]3C)[C@@H]3O[C@@]34COC(C)(C)O[C@H]4[C@]2(O)C1=O (stereo partly shown) [Compound of formula (Ia)]
Comment (solubility) ([1]; 2-Propanol, 5 V → 10 V, 20-25° C. → reflux, remained dissolved): Remained
Comment (solubility) ([1]; Acetone, 5 V → 10 V, 20-25° C. → reflux, soluble only with 10 V of acetone at reflux): Soluble only
Comment (solubility) ([1]; Acetonitrile, 5 V → 10 V, 20-25° C. → reflux, dissolution observed at reflux): Dissolution
Comment (solubility) ([1]; Dimethylformamide, 5 V → 10 V, 20-25° C., soluble only with 10 V of DMF): Soluble only
Comment (solubility) ([1]; Ethyl acetate, 5 V → 10 V, 20-25° C., remained dissolved): Remained
Comment (solubility) ([1]; Methyl tert-butyl ether, 5 V → 20 V, 20-25° C. → reflux): Not soluble

CC1=CC2[C@]3(O)C(C4C(C)(C)[C@]4(O)[C@H](O)[C@H]3C)[C@@H]3O[C@@]34COC(C)(C)O[C@H]4[C@]2(O)C1=O (stereo partly shown) [Form A]
stable (storage time) ([2]; free crystalline powder, 80° C. and 60% humidity): 24 h
stable (storage time) ([2]; industrial packaging (Type III amber glass vial, 10 mL, screw cap with polyethylene stoppers), 25° C. and 60% relative humidity): at least 9 months
solid form change upon storage ([2]; storage at 5° C. for 5 days): transformed into a dihydrate form
solid form change upon storage ([2]; storage at 25° C. at 80% relative humidity for 68 hours): a new stable anhydrous crystalline form was formed, Form B
solid form change upon storage ([2]; storage at 40° C. at 80% relative humidity for 7 days): a new stable anhydrous crystalline form was formed, Form B

CC1=CC2[C@]3(O)C(C4C(C)(C)[C@]4(O)[C@H](O)[C@H]3C)[C@@H]3O[C@@]34COC(C)(C)O[C@H]4[C@]2(O)C1=O (stereo partly shown) [Form B]
stable unchanged (further storage time) ([2]; 25° C. at 80% relative humidity): ≥ 7 days

CC1=CC2[C@]3(O)C(C4C(C)(C)[C@]4(O)[C@H](O)[C@H]3C)[C@@H]3O[C@@]34COC(C)(C)O[C@H]4[C@]2(O)C1=O (stereo partly shown) [dihydrate form]
solid form change upon storage ([2]; storage at 25° C. and 80% relative humidity for 5 days): transformed back to Form A
